Test results taken from ChEMBL document CHEMBL4028801, “A multifactorial approach to hepatobiliary transporter assessment enables improved therapeutic compound development” (Toxicol Sci, 2013).

Columns and labels:
[1] = biological target: ATP-binding cassette sub-family C member 2 (Homo sapiens, UniProt Q92887); assay: Inhibition of human MRP2 overexpressed in Sf9 cell membrane vesicles assessed as uptake of [3H]-estradiol-17beta-D-glucuronide in presence of ATP and GSH measured after 20 mins by membrane vesicle transport assay
ATP-binding cassette sub-family C member 2, sequence (Q92887 whole entry): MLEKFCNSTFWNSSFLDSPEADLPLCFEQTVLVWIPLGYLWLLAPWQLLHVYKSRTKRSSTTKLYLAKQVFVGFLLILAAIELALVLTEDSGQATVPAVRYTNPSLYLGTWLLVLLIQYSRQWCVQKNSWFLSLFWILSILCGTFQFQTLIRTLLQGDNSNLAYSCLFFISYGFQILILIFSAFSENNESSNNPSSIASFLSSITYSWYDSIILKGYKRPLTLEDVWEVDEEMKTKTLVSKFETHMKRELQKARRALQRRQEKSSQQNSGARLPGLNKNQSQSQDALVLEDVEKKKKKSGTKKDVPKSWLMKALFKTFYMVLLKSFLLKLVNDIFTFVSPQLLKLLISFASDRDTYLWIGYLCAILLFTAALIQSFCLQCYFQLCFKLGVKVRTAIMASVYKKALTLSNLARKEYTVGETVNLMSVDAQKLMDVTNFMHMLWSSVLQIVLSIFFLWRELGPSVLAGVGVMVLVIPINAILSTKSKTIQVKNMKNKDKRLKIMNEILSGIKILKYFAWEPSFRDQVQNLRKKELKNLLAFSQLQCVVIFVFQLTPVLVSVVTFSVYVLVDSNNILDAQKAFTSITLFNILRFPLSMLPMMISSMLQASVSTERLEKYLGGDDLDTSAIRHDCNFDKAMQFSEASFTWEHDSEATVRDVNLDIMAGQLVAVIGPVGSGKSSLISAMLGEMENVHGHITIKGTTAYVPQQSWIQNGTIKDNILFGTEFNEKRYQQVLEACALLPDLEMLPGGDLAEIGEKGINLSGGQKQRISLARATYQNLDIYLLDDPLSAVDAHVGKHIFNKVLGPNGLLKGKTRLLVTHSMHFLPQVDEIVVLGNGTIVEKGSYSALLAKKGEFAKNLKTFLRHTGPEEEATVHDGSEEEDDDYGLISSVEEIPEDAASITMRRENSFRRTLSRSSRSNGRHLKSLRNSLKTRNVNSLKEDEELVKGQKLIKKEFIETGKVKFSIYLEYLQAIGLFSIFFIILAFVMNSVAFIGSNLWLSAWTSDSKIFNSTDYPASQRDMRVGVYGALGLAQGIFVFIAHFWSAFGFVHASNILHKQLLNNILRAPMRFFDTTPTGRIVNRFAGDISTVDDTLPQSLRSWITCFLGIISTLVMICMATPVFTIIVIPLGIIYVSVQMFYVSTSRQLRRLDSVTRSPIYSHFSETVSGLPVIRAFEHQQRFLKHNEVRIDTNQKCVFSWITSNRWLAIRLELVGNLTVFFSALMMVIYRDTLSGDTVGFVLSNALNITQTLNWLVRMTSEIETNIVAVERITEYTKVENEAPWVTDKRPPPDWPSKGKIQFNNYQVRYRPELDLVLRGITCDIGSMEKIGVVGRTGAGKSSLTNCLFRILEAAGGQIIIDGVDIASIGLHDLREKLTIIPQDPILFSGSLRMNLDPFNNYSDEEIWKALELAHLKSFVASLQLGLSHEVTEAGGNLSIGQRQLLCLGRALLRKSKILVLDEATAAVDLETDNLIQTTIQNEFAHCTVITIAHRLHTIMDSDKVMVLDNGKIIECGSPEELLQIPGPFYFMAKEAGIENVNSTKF

[2] = biological target: ATP-binding cassette sub-family C member 3 (Homo sapiens, UniProt O15438); assay: Inhibition of human MRP3 overexpressed in Sf9 insect cell membrane vesicles assessed as uptake of [3H]-estradiol-17beta-D-glucuronide in presence of ATP and GSH measured after 10 mins by membrane vesicle transport assay; format: ADME, cell-based
ATP-binding cassette sub-family C member 3, sequence (O15438 whole entry): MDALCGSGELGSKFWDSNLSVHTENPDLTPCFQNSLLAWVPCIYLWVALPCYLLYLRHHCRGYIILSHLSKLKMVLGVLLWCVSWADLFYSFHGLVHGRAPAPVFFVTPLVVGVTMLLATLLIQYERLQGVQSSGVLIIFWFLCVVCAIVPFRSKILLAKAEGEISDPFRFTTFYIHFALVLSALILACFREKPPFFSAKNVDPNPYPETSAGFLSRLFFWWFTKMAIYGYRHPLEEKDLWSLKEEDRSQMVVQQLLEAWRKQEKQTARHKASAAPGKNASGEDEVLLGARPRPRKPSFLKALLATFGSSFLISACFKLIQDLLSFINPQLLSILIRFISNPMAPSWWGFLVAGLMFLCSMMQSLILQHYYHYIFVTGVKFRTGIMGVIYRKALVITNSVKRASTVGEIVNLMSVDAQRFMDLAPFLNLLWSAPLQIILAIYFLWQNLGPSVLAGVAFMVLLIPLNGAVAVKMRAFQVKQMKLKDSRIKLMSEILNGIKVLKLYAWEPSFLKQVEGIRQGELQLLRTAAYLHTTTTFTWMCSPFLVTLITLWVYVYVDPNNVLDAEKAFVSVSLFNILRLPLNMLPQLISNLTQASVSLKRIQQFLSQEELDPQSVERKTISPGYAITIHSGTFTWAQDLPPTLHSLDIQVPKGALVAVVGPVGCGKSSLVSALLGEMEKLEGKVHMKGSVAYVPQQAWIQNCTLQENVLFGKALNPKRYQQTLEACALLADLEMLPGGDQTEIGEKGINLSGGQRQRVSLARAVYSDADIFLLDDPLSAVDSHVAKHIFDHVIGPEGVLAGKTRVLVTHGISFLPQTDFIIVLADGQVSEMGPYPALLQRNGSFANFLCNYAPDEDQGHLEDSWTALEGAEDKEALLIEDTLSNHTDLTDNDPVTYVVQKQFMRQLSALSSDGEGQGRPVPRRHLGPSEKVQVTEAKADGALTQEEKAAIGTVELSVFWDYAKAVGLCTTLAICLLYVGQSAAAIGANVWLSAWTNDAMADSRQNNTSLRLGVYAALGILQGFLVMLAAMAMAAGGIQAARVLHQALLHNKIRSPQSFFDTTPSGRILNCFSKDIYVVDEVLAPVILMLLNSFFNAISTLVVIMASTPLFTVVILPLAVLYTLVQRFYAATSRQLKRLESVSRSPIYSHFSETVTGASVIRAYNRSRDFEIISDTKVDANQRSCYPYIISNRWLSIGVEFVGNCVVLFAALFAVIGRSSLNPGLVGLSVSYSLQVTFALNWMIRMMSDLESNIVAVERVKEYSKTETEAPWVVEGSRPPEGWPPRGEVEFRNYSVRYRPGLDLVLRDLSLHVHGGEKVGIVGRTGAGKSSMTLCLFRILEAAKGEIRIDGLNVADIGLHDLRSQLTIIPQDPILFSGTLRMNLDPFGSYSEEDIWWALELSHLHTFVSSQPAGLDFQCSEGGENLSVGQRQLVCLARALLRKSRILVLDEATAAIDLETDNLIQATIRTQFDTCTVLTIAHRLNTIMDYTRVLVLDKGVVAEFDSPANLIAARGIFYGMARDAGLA

[3] = AUC in human at 250 to 500 mg, po QD after 24 hrs; format: ADME, organism-based; settings: in vivo
[4] = biological target: T1, ATP-binding cassette sub-family C member 4 (Homo sapiens, UniProt O15439); assay: Inhibition of human MRP4 overexpressed in Sf9 cell membrane vesicles assessed as uptake of [3H]-estradiol-17beta-D-glucuronide in presence of ATP and GSH measured after 20 mins by membrane vesicle transport assay; format: ADME, cell-based
T1 sequence (O15439 whole entry): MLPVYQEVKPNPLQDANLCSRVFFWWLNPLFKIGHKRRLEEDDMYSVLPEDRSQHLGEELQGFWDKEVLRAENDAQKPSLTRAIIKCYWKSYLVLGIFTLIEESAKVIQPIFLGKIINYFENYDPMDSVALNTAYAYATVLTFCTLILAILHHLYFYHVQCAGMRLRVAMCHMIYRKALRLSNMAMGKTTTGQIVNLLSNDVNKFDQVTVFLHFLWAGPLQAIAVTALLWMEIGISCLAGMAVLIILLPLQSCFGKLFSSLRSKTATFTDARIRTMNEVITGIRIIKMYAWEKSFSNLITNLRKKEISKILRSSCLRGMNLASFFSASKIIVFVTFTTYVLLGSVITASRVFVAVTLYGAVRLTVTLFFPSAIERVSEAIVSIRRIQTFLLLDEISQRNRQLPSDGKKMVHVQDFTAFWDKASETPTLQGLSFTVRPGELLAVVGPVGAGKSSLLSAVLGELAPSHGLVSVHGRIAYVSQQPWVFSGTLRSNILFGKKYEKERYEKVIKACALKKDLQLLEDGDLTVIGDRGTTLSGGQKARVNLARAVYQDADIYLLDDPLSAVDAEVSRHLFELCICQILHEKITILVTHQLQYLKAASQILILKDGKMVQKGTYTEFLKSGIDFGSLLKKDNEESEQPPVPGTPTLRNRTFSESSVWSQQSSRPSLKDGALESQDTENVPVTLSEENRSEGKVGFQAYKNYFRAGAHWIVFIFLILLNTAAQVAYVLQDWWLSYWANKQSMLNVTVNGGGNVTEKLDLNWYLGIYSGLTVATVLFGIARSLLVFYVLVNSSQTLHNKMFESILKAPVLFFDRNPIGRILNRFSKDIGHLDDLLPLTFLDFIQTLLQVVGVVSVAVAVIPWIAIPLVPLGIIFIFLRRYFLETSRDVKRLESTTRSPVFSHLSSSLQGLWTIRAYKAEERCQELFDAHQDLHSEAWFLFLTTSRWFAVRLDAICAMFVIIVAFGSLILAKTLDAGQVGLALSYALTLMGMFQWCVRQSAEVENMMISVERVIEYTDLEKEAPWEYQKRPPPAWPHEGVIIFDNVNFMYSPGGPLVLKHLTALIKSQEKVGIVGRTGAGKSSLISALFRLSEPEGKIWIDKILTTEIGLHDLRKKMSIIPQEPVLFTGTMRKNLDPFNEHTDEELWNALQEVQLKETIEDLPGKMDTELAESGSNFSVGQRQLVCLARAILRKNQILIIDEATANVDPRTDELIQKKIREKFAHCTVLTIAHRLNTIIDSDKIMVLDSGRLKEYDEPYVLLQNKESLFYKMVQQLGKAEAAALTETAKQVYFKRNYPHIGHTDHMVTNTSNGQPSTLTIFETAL

[5] = AUC in human at 1 to 4 mg, po QD after 24 hrs; format: ADME, organism-based; settings: in vivo
[6] = Drug concentration at steady state in human at 1 to 4 mg, po QD after 24 hrs; format: ADME, organism-based; settings: in vivo, read-out: Css
[7] = Ratio of drug concentration at steady state in human at 1 to 4 mg, po QD after 24 hrs to IC50 for human BSEP overexpressed in Sf9 insect cells; format: ADME, organism-based; settings: in vivo
[8] = Ratio of drug concentration at steady state in human at 1 to 4 mg, po QD after 24 hrs to IC50 for human MRP3 overexpressed in Sf9 insect cells; format: ADME, organism-based; settings: in vivo
[9] = Ratio of drug concentration at steady state in human at 1 to 4 mg, po QD after 24 hrs to IC50 for human MRP4 overexpressed in Sf9 insect cells; format: ADME, organism-based; settings: in vivo
[10] = AUC in human at 1.25 to 25 mg, po QD after 24 hrs; format: ADME, organism-based; settings: in vivo
[11] = Drug concentration at steady state in human at 1.25 to 25 mg, po QD after 24 hrs; format: ADME, organism-based; settings: in vivo, read-out: Css
[12] = AUC in human at 200 mg, po QD for 1 to 2 weeks after 24 hrs; format: ADME, organism-based; design: time < 24 hr, dose 200 mg, route oral; settings: in vivo
[13] = Drug concentration at steady state in human at 200 mg, po QD for 1 to 2 weeks after 24 hrs; format: ADME, organism-based; settings: in vivo, read-out: Css
Homo sapiens [14] = assay: Ratio of drug concentration at steady state in human at 200 mg, po QD for 1 to 2 weeks after 24 hrs to IC50 for human BSEP overexpressed in Sf9 insect cells; format: ADME, organism-based; settings: in vivo
Bile salt export pump = Bile salt export pump (Homo sapiens, UniProt O95342); assay: Inhibition of human BSEP overexpressed in Sf9 cell membrane vesicles assessed as uptake of [3H]-taurocholate in presence of ATP measured after 15 to 20 mins by membrane vesicle transport assay; format: ADME, cell-based
Bile salt export pump, sequence (O95342 whole entry): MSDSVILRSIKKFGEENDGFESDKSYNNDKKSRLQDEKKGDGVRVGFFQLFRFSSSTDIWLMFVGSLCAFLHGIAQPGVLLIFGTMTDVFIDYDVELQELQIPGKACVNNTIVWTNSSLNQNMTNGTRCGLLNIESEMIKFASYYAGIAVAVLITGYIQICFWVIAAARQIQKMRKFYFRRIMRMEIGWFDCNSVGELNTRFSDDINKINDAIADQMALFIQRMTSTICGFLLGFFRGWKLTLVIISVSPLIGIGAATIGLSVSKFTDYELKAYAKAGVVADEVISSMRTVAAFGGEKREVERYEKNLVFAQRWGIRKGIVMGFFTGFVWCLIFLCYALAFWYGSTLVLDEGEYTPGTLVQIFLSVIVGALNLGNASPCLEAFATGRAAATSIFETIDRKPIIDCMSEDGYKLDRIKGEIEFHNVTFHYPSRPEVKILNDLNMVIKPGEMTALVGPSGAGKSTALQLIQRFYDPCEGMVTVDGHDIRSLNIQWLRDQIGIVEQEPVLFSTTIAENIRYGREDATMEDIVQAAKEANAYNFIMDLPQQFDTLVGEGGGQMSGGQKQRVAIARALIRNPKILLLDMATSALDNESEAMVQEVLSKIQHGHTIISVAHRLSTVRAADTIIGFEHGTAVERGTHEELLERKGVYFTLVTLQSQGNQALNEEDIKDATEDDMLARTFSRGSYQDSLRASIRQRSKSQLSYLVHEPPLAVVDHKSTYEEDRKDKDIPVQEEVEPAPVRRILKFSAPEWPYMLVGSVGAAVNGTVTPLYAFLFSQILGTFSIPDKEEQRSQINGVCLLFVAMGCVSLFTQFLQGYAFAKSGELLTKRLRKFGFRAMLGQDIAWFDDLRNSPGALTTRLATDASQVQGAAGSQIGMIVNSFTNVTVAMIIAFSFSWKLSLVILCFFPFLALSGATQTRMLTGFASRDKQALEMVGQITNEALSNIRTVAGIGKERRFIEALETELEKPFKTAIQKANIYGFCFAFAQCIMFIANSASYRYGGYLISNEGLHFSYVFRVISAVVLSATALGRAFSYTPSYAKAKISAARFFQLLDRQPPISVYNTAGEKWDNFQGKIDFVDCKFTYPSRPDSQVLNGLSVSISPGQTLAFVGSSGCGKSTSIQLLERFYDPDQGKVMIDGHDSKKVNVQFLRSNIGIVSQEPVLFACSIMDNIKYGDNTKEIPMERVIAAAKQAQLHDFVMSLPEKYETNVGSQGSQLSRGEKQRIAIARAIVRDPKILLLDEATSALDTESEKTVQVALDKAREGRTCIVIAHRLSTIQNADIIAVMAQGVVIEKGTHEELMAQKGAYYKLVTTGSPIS

[15] = AUC in human at 50 to 100 mg, po QD after 24 hrs; format: ADME, organism-based; settings: in vivo
[16] = Drug concentration at steady state in human at 50 to 100 mg, po QD after 24 hrs; format: ADME, organism-based; settings: in vivo, read-out: Css
Homo sapiens [17] = assay: Ratio of drug concentration at steady state in human at 50 to 100 mg, po after 24 hrs to IC50 for human BSEP overexpressed in Sf9 insect cells; format: ADME, organism-based; settings: in vivo
Homo sapiens [18] = assay: Ratio of drug concentration at steady state in human at 50 to 100 mg, po after 24 hrs to IC50 for human MRP4 overexpressed in Sf9 insect cells; format: ADME, organism-based; settings: in vivo
[19] = AUC in patient with possible depletion of intravascular volume at 25 mg, po QD after 24 hrs; format: ADME, organism-based; design: time < 24 hr, dose 25 mg, route oral; settings: human, in vivo
[20] = Drug concentration at steady state in patient with possible depletion of intravascular volume at 25 mg, po QD after 24 hrs; format: ADME, organism-based; settings: human, in vivo, read-out: Css
Homo sapiens [21] = assay: Ratio of drug concentration at steady state in patient with possible depletion of intravascular volume at 25 mg, po QD after 24 hrs to IC50 for human BSEP overexpressed in Sf9 insect cells; format: ADME, organism-based; settings: in vivo
Homo sapiens [22] = assay: Ratio of drug concentration at steady state in patient with possible depletion of intravascular volume at 25 mg, po QD after 24 hrs to IC50 for human MRP4 overexpressed in Sf9 insect cells; format: ADME, organism-based; settings: in vivo

COc1cc2ncnc(Nc3ccc(F)c(Cl)c3)c2cc1OCCCN1CCOCC1 [GEFITINIB]
IC50 [1]: > 133 µM | IC50 [2]: > 133 µM | AUC at 24 h [3]: 5.38 µM·h

CCC1=C(C)CN(C(=O)NCCc2ccc(S(=O)(=O)NC(=O)N[C@H]3CC[C@H](C)CC3)cc2)C1=O [GLIMEPIRIDE]
IC50 [2]: 6.39 µM | IC50 [4]: 64 µM | AUC at 24 h [5]: 3.4 µM·h | concentration at 24 h [6]: 141 nM | Ratio [7]: 0.009 | Ratio [8]: 0.022 | Ratio [9]: 0.002

COc1ccc(Cl)cc1C(=O)NCCc1ccc(S(=O)(=O)NC(=O)NC2CCCCC2)cc1 [GLYBURIDE]
IC50 [2]: 33 µM | IC50 [4]: 10.5 µM | AUC at 24 h [10]: 2.69 µM·h | concentration at 24 h [11]: 112 nM

CCC(C)n1ncn(-c2ccc(N3CCN(c4ccc(OCC5COC(Cn6cncn6)(c6ccc(Cl)cc6Cl)O5)cc4)CC3)cc2)c1=O (stereo unspecified) [ITRACONAZOLE]
IC50 [1]: > 133 µM | IC50 [2]: > 133 µM | IC50 [4]: > 133 µM | AUC at 24 h [12]: 8.69 µM·h | concentration at 24 h [13]: 362 nM | Ratio (Homo sapiens [14]): 0.02

CCCCc1nc(Cl)c(CO)n1Cc1ccc(-c2ccccc2-c2nnn[n-]2)cc1.[K+] [LOSARTAN POTASSIUM]
IC50 (Bile salt export pump): 8.53 µM | IC50 [2]: > 133 µM | IC50 [4]: 34.1 µM | AUC at 24 h [15]: 2.42 µM·h | concentration at 24 h [16]: 101 nM | Ratio (Homo sapiens [17]): 0.012 | Ratio (Homo sapiens [18]): 0.003 | AUC at 24 h [19]: 2.42 µM·h | concentration at 24 h [20]: 101 nM | Ratio (Homo sapiens [21]): 0.012 | Ratio (Homo sapiens [22]): 0.003
